Laboratory results reported in US20230147257A1 (DONG-A ST CO., LTD., priority 2020, published 2023).
Where a name gives a salt, the structure may show the parent alone.

These molecules were tested against T1, AhR (Homo sapiens, UniProt P35869) (assay: In vitro assay 1: XRE-luciferase reporter assay, antagonism in human cell line (HepG2)). Conditions: HepG2 XRE-luciferase, cells treated with kynurenine 50 μM (*), 6 hours; read-out: Assay 1: AhR-Luc Human Antagonism (IC50).
T1 construct: host or cells: HepG2
T1 sequence (P35869 11-848): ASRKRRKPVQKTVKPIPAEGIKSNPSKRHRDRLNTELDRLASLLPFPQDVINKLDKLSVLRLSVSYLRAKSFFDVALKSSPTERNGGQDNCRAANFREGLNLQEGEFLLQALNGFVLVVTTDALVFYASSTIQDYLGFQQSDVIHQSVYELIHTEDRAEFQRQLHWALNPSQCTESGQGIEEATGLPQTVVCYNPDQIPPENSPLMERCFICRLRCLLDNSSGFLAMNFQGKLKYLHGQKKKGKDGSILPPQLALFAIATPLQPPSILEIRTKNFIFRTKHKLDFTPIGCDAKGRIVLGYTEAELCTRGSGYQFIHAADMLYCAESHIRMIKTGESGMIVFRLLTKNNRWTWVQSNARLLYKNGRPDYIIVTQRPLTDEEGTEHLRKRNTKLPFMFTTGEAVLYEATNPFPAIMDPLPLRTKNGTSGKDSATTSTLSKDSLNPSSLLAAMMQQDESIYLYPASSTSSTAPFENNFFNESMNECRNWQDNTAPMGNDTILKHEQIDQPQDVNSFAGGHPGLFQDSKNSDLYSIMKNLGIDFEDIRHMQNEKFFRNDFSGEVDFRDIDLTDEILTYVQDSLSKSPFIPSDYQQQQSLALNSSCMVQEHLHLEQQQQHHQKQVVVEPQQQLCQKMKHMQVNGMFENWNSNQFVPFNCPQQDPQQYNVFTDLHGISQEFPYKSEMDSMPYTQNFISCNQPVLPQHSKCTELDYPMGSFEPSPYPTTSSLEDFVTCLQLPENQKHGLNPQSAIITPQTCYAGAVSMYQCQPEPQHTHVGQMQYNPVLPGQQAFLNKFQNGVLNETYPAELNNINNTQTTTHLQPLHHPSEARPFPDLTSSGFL
Format: cell-based
Text: In Vitro XRE-Luciferase Reporter Assay (In Vitro Assay 1, 2, 3)
AhR activation leads the induction of target gene expression such as CYP1A1 and CYP1B1 by AhR binding to AhR-responsive DNA elements also known as xenobiotics responsive elements (XRE). The assay for measuring AhR activity herein is the luciferase assay using cell lines transfected with luciferase reporter plasmid containing XREs at the upstream of the reporter gene. Cells transfected with XRE-luciferase reporter (XRE-Luc) plasmid drive luciferase activity reflecting activation and inhibition of AhR in the cells. In addition to transfection with XRE-reporter vector, cells were co-transfected with Nano-luciferase reporter gene construct (Nano-Luc) containing constitutively active promoter as internal control. Kynurenine (an endogenous AhR agonist) was used to stimulate cells to test antagonistic properties of the compounds. The half-maximal inhibitory concentration (IC50) or half-maximal effective concentration (EC50) value was calculated using nonlinear regression (four parameters) with Prism8.0 software (GraphPad).
In Vitro Assay 1: Antagonism in Human Cell Line
HepG2 (human hepatoma cell line) cell line with a XRE-luciferase reporter either transiently or stably (Invivogen) were plated in complete medium and incubated at 37° C. in a CO2 incubator. After 24 hours, cells were treated with kynurenine (50* or 200 μM) alone (negative control) or with test compounds for 6 hours. Luciferase activity was measured with a commercial kit such as the Promega Luciferase kit or other reagents for measuring luciferase activity. Relative luciferase activity (Firefly/Nano-Luc) was used to calculate IC50 values. The relative luciferase activity was further normalized with kynurenine alone group as the maximum control and the vehicle group as the minimum control. (IC50 values are grouped as A, B, C and D, whereby A: IC50<0.01 μM; B: 0.01<IC50<0.1 μM; C: 0.1<IC50<1.0 μM; D: IC50>1.0 μM)

Going from `CCC(CO)n1cnc2c(-c3cccnc3)nc(-c3ccc(C(F)(F)F)cc3)cc2c1=O` (stereo not shown) [Example 53, 3-(1-hydroxybutan-2-yl)-8-(pyridin-3-yl)-6-(4-(trifluoromethyl)phenyl)pyrido[3,4-d]pyrimidin-4(3H)-one] to `CC(O)Cn1cnc2c(-c3cnn(C)c3)nc(-c3ccc(C(F)(F)F)cc3)cc2c1=O` (stereo not shown) [Example 12, 3-(2-hydroxypropyl)-8-(1-methyl-1H-pyrazol-4-yl)-6-(4-(trifluoromethyl)phenyl)pyrido[3,4-d]pyrimidin-4(3H)-one], the IC50 falls from over 1 µM to under 0.01 µM. The second is the more potent here.

First: CC(=O)OCC(C)n1cnc2c(-c3ccc(Cl)cc3)nc(Cl)cc2c1=O (stereo not shown) [Example 7, 2-(6-chloro-8-(4-chlorophenyl)-4-oxopyrido[3,4-d]pyrimidin-3(4H)-yl)propyl acetate]
Second: Cn1cc(-c2cc3c(=O)n([C@H]4CC[C@H](O)CC4)cnc3c(-c3cnn(C)c3)n2)cn1 [Example 9, 3-((1r,4r)-4-hydroxycyclohexyl)-6,8-bis(1-methyl-1H-pyrazol-4-yl)pyrido[3,4-d]pyrimidin-4(3H)-one]
The IC50 of the first is higher: over 1 µM for the first, 0.1 to 1 µM for the second. The second is the more potent here.

Same assay, conditions: HepG2 XRE-luciferase, cells treated with kynurenine 200 μM (no *), 6 hours; read-out: Assay 1: AhR-Luc Human Antagonism (IC50)

`Cn1cc(-c2nc(-c3ccc(Cl)cc3)cc3c(=O)n([C@@H]4CC[C@H](O)C4)cnc23)cn1` [Example 30, 6-(4-chlorophenyl)-3-((1R,3S)-3-hydroxycyclopentyl)-8-(1-methyl-1H-pyrazol-4-yl)pyrido[3,4-d]pyrimidin-4(3H)-one] and `Cn1cc(-c2nc(-c3ccc(Cl)cc3)cc3c(=O)n(C4CCCC(O)C4)cnc23)cn1` (stereo not shown) [Example 64, 6-(4-chlorophenyl)-3-(3-hydroxycyclohexyl)-8-(1-methyl-1H-pyrazol-4-yl)pyrido[3,4-d]pyrimidin-4(3H)-one] fall in the same range of IC50: 0.01 to 0.1 µM for the first, 0.01 to 0.1 µM for the second.

`O=c1c2cc(-c3ccc(Cl)cc3)nc(-c3cccnc3)c2ncn1-c1cccc(O)c1` [Example 61, 6-(4-chlorophenyl)-3-(3-hydroxyphenyl)-8-(pyridin-3-yl)pyrido[3,4-d]pyrimidin-4(3H)-one] and `O=c1c2cc(-c3ccc(C(F)(F)F)cc3)nc(-c3cccnc3)c2ncn1-c1cccc(O)c1` [Example 62, 3-(3-hydroxyphenyl)-8-(pyridin-3-yl)-6-(4-(trifluoromethyl)phenyl)pyrido[3,4-d]pyrimidin-4(3H)-one] cannot be ordered by IC50: under 0.01 µM for the first, under 0.01 µM for the second.

First: O=c1c2cc(-c3cnc(C(F)(F)F)nc3)nc(-c3cccnc3)c2ncn1[C@@H]1CC[C@H](O)C1 [Example 72, 3-((1R,3S)-3-hydroxycyclopentyl)-8-(pyridin-3-yl)-6-(2-(trifluoromethyl)pyrimidin-5-yl)pyrido[3,4-d]pyrimidin-4(3H)-one, TFA salt]
Second: O=c1c2cc(-c3ccc(C(F)(F)F)nc3)nc(-c3cccnc3)c2ncn1[C@@H]1CC[C@H](O)C1 [Example 65, 3-((1R,3S)-3-hydroxycyclopentyl)-8-(pyridin-3-yl)-6-(6-(trifluoromethyl)pyridin-3-yl)pyrido[3,4-d]pyrimidin-4(3H)-one]
The IC50 of the first is higher: 0.01 to 0.1 µM for the first, under 0.01 µM for the second. The second is the more potent here.

`O=c1c2cc(-c3ccc(N4CCOCC4)cc3)nc(-c3cccnc3)c2ncn1C1CCS(=O)(=O)CC1` [Example 78, 3-(1,1-dioxidotetrahydro-2H-thiopyran-4-yl)-6-(4-morpholinophenyl)-8-(pyridin-3-yl)pyrido[3,4-d]pyrimidin-4(3H)-one] and `O=c1c2cc(-c3ccc(N4CCOCC4)cc3)nc(-c3cccnc3)c2ncn1[C@@H]1CC[C@H](O)C1` [Example 73, 3-((1R,3S)-3-hydroxycyclopentyl)-6-(4-morpholinophenyl)-8-(pyridin-3-yl)pyrido[3,4-d]pyrimidin-4(3H)-one] cannot be ordered by IC50: under 0.01 µM for the first, under 0.01 µM for the second.

`CC(=O)OC(C)(C)Cn1cnc2c(-c3cccnc3)nc(-c3ccc(C(F)(F)F)cc3)cc2c1=O` [Example 37, 2-methyl-1-(4-oxo-8-(pyridin-3-yl)-6-(4-(trifluoromethyl)phenyl)pyrido[3,4-d]pyrimidin-3(4H)-yl)propan-2-yl acetate] and `O=c1c2cc(-c3ccc(C(F)(F)F)cc3)nc(-c3cccnc3)c2ncn1C[C@@H](O)CO` [Example 81, (R)-3-(2,3-dihydroxypropyl)-8-(pyridin-3-yl)-6-(4-(trifluoromethyl)phenyl)pyrido[3,4-d]pyrimidin-4(3H)-one] cannot be ordered by IC50: under 0.01 µM for the first, under 0.01 µM for the second.

Going from `CN1CCN(c2ccc(-c3cc4c(=O)n(CC(O)CO)cnc4c(-c4cccnc4)n3)cc2)CC1` (stereo not shown) [Example 68, 3-(2,3-dihydroxypropyl)-6-(4-(4-methylpiperazin-1-yl)phenyl)-8-(pyridin-3-yl)pyrido[3,4-d]pyrimidin-4(3H)-one] to `O=c1c2cc(-c3ccc(Cl)cc3)nc(-c3cccnc3)c2ncn1C(CO)CO` [Example 70, 6-(4-chlorophenyl)-3-(1,3-dihydroxypropan-2-yl)-8-(pyridin-3-yl)pyrido[3,4-d]pyrimidin-4(3H)-one], the IC50 falls from over 1 µM to under 0.01 µM. The second is the more potent here.

`Cn1cc(-c2nc(-c3ccc(C(F)(F)F)cc3)cc3c(=O)n([C@@H]4CCCC[C@@H]4O)cnc23)cn1` [Example 18, 3-((1R,2S)-2-hydroxycyclohexyl)-8-(1-methyl-1H-pyrazol-4-yl)-6-(4-(trifluoromethyl)phenyl)pyrido[3,4-d]pyrimidin-4(3H)-one] and `Cn1cc(-c2nc(-c3ccc(C(F)(F)F)cc3)cc3c(=O)n(-c4cccc(O)c4)cnc23)cn1` [Example 27, 3-(3-hydroxyphenyl)-8-(1-methyl-1H-pyrazol-4-yl)-6-(4-(trifluoromethyl)phenyl)pyrido[3,4-d]pyrimidin-4(3H)-one] cannot be ordered by IC50: under 0.01 µM for the first, under 0.01 µM for the second.

`O=c1c2cc(-c3ccc(Cl)cc3)nc(-c3cccnc3)c2ncn1[C@H]1CC[C@@H](O)C1` [Example 32, 6-(4-chlorophenyl)-3-((1S,3R)-3-hydroxycyclopentyl)-8-(pyridin-3-yl)pyrido[3,4-d]pyrimidin-4(3H)-one] and `O=c1c2cc(-c3ccc(Cl)cc3)nc(-c3cccnc3)c2ncn1[C@@H]1CC[C@H](O)C1` [Example 28, 6-(4-chlorophenyl)-3-((1R,3S)-3-hydroxycyclopentyl)-8-(pyridin-3-yl)pyrido[3,4-d]pyrimidin-4(3H)-one] cannot be ordered by IC50: under 0.01 µM for the first, under 0.01 µM for the second.

First: O=c1c2cc(-c3ccc(C(F)(F)F)cc3)nc(-c3cccnc3)c2ncn1C1CCNCC1 [Example 93, 3-(piperidin-4-yl)-8-(pyridin-3-yl)-6-(4-(trifluoromethyl)phenyl)pyrido[3,4-d]pyrimidin-4(3H)-one]
Second: CC(CN)n1cnc2c(-c3cccnc3)nc(-c3ccc(C(F)(F)F)cc3)cc2c1=O (stereo not shown) [Example 85, 3-(1-aminopropan-2-yl)-8-(pyridin-3-yl)-6-(4-(trifluoromethyl)phenyl)pyrido[3,4-d]pyrimidin-4(3H)-one]
The IC50 of the first is lower: under 0.01 µM for the first, 0.01 to 0.1 µM for the second. The first is the more potent here.

`CC(C)(O)Cn1cnc2c(-c3cccnc3)nc(-c3ccc(C(F)(F)F)nc3)cc2c1=O` [Example 40, 3-(2-hydroxy-2-methylpropyl)-8-(pyridin-3-yl)-6-(6-(trifluoromethyl)pyridin-3-yl)pyrido[3,4-d]pyrimidin-4(3H)-one] and `CC(CN)n1cnc2c(-c3cccnc3)nc(-c3ccc(Cl)cc3)cc2c1=O` (stereo not shown) [Example 87, 3-(1-aminopropan-2-yl)-6-(4-chlorophenyl)-8-(pyridin-3-yl)pyrido[3,4-d]pyrimidin-4(3H)-one] cannot be ordered by IC50: under 0.01 µM for the first, under 0.01 µM for the second.

`CC(CO)n1cnc2c(-c3cccnc3)nc(-c3ccc(-c4ccc(Cl)cc4)cc3)cc2c1=O` (stereo not shown) [Example 74, 6-(4′-chloro-[1,1′-biphenyl]-4-yl)-3-(1-hydroxypropan-2-yl)-8-(pyridin-3-yl)pyrido[3,4-d]pyrimidin-4(3H)-one] was tested, and the IC50 was under 0.01 µM.
